Results as given in ChEMBL document CHEMBL1201862, “PubChem BioAssay data set” (2004).
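These data come from cells grown in 96-well plates and exposed to compound for 48 hours at five concentrations. The concentration for 50% growth inhibition is given as GI50.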 Activity calls are given as the source filed them. Rule as the data show it: active = GI50 up to about 1.1 µM and inactive = higher.

Tests used:
Assay in all cases: NCI anticancer screen, dose series, 48 h
[1] = tested on: 786-0
[2] = tested on: A498
[3] = tested on: BT-549
[4] = tested on: HCT-116
[5] = tested on: HOP-62
[6] = tested on: HOP-92
[7] = tested on: LOX IMVI
[8] = tested on: MCF7
[9] = tested on: MDA-MB-231
[10] = tested on: MDA-MB-435
[11] = tested on: MDA-N
[12] = tested on: NCI-H226
[13] = tested on: NCI-H23
[14] = tested on: NCI-H460
[15] = tested on: NCI-H522
[16] = tested on: OVCAR-3
[17] = tested on: SF-295
[18] = tested on: SF-539
[19] = tested on: SNB-19
[20] = tested on: T47D

Row | Structure (SMILES) | GI50 [1] | GI50 [2] | GI50 [3] | GI50 [4] | GI50 [5] | GI50 [6] | GI50 [7] | GI50 [8] | GI50 [9] | GI50 [10] | GI50 [11] | GI50 [12] | GI50 [13] | GI50 [14] | GI50 [15] | GI50 [16] | GI50 [17] | GI50 [18] | GI50 [19] | GI50 [20]
1 | Cc1cn(C2CCC(CO)(CF)O2)c(=O)[nH]c1=O (stereo not given) | > 100 µM (inactive) | > 100 µM (inactive) | > 100 µM (inactive) | > 100 µM (inactive) | > 100 µM (inactive) | > 100 µM (inactive) | > 100 µM (inactive) | > 100 µM (inactive) | > 100 µM (inactive) | > 100 µM (inactive) | > 100 µM (inactive) | > 100 µM (inactive) | > 100 µM (inactive) | > 100 µM (inactive) | > 100 µM (inactive) | > 100 µM (inactive) | > 100 µM (inactive) | > 100 µM (inactive) | > 100 µM (inactive) | > 100 µM (inactive)
2 | c1ccc(CSCCc2ccncc2)cc1 | > 100 µM (inactive) | > 100 µM (inactive) | > 100 µM (inactive) | > 100 µM (inactive) | > 100 µM (inactive) | 15.2 µM (inactive) | > 100 µM (inactive) | > 100 µM (inactive) | 15.8 µM (inactive) | > 100 µM (inactive) | > 100 µM (inactive) | > 100 µM (inactive) | > 100 µM (inactive) | > 100 µM (inactive) | 69 µM (inactive) | > 100 µM (inactive) | > 100 µM (inactive) | > 100 µM (inactive) | > 100 µM (inactive) | 90.6 µM (inactive)
3 | Cc1ccc2cccc(OC(=O)c3cc4c(cc3Cl)Sc3nccn3S4(=O)=O)c2n1 | 17 µM (inactive) | 17.7 µM (inactive) | 17.4 µM (inactive) | 6.53 µM (inactive) | 0.661 µM (active) | 14.6 µM (inactive) | 7.13 µM (inactive) | 5.71 µM (inactive) | 14.1 µM (inactive) | 9.59 µM (inactive) | 14.4 µM (inactive) | 21 µM (inactive) | 16.3 µM (inactive) | 3.13 µM (inactive) | 9.82 µM (inactive) | 2.75 µM (inactive) | 12.9 µM (inactive) | 5.61 µM (inactive) | 12.9 µM (inactive) | 4.44 µM (inactive)
4 | CCOC(=O)c1cccc(/N=N/c2nc[nH]c2/C=C/C(=O)OC)c1 | 7.36 µM (inactive) | 22.6 µM (inactive) | 42.6 µM (inactive) | 4.17 µM (inactive) | 6.35 µM (inactive) | 45.1 µM (inactive) | 7.43 µM (inactive) | 4.18 µM (inactive) | 4.39 µM (inactive) | 37 µM (inactive) | 28.4 µM (inactive) | 64.4 µM (inactive) | 36.3 µM (inactive) | 16.5 µM (inactive) | 9.38 µM (inactive) | 3.15 µM (inactive) | 12.9 µM (inactive) | 7.14 µM (inactive) | 30.5 µM (inactive) | 9.95 µM (inactive)
5 | C(=C(c1ccc(OC2CCCCO2)cc1)c1ccc(OC2CCCCO2)cc1)c1ccccc1 (stereo not given) | 0.519 µM (active) | 1.31 µM (inactive) | 0.543 µM (active) | 0.412 µM (active) | 0.925 µM (active) | 0.524 µM (active) | 0.232 µM (active) | 0.0995 µM (active) | 0.361 µM (active) | 0.557 µM (active) | 0.634 µM (active) | 1.21 µM (inactive) | 0.546 µM (active) | 0.395 µM (active) | 1.09 µM (active) | 0.577 µM (active) | 1.18 µM (inactive) | 1.53 µM (inactive) | 1.26 µM (inactive) | 0.526 µM (active)
6 | O=C(/C=C/c1ccc(O)c(O)c1)NC(CO)C(=O)O (stereo not given) | > 100 µM (inactive) | > 100 µM (inactive) | > 100 µM (inactive) | > 100 µM (inactive) | > 100 µM (inactive) | 3.72 µM (inactive) | > 100 µM (inactive) | > 100 µM (inactive) | > 100 µM (inactive) | > 100 µM (inactive) | > 100 µM (inactive) | > 100 µM (inactive) | > 100 µM (inactive) | > 100 µM (inactive) | > 100 µM (inactive) | > 100 µM (inactive) | > 100 µM (inactive) | > 100 µM (inactive) | > 100 µM (inactive) | > 100 µM (inactive)
7 | Nc1cccc2nsnc12 | > 100 µM (inactive) | > 100 µM (inactive) | > 100 µM (inactive) | > 100 µM (inactive) | > 100 µM (inactive) | > 100 µM (inactive) | > 53.1 µM (inactive) | > 88.3 µM (inactive) | > 100 µM (inactive) | 31.6 µM (inactive) | 49.8 µM (inactive) | > 100 µM (inactive) | > 100 µM (inactive) | > 84.1 µM (inactive) | 9.1 µM (inactive) | > 94.8 µM (inactive) | > 88.7 µM (inactive) | > 100 µM (inactive) | > 100 µM (inactive) | 49.1 µM (inactive)
8 | CCOC(=O)Oc1ccc2c(c1)c(=O)c1c(NCCCN(CC)CC)ccc3nnn2c31 | 1.59 µM (inactive) | 11.1 µM (inactive) | 17.5 µM (inactive) | 1.37 µM (inactive) | 1.75 µM (inactive) | 6.76 µM (inactive) | 2.52 µM (inactive) | 0.929 µM (active) | 1.12 µM (inactive) | 5.45 µM (inactive) | 1.19 µM (inactive) | 7.18 µM (inactive) | 13.3 µM (inactive) | 0.337 µM (active) | 1.56 µM (inactive) | 5.5 µM (inactive) | 1.82 µM (inactive) | 5.62 µM (inactive) | 5.2 µM (inactive) | 16.8 µM (inactive)
9 | Nc1nc(O)c2[nH]nnc2n1 [8-AZAGUANINE] | 0.292 µM (active) | 11.6 µM (inactive) | 0.473 µM (active) | 0.881 µM (active) | 0.326 µM (active) | 0.757 µM (active) | 0.223 µM (active) | 40.8 µM (inactive) | 5.82 µM (inactive) | 0.265 µM (active) | 0.308 µM (active) | 0.789 µM (active) | 25.1 µM (inactive) | 11.4 µM (inactive) | 13.9 µM (inactive) | 16 µM (inactive) | 3.11 µM (inactive) | 0.361 µM (active) | 42.7 µM (inactive) | 3.44 µM (inactive)
10 | COc1ccc2c(c1)CCN1CCc3ccccc3CC21 (stereo not given) | 31.3 µM (inactive) | 30 µM (inactive) | 34 µM (inactive) | 20.4 µM (inactive) | 72.8 µM (inactive) | 20.5 µM (inactive) | 24 µM (inactive) | 60.8 µM (inactive) | 52.2 µM (inactive) | 26.8 µM (inactive) | 27.4 µM (inactive) | 29 µM (inactive) | 39 µM (inactive) | 30.8 µM (inactive) | 67.3 µM (inactive) | 72.4 µM (inactive) | 19.2 µM (inactive) | 36.6 µM (inactive) | 32.9 µM (inactive) | 43.7 µM (inactive)
11 | C=CC(=O)N1C/C(=C\c2ccc(Cl)cc2)C(=O)/C(=C/c2ccc(Cl)cc2)C1 | 0.21 µM (active) | 0.494 µM (active) | 0.329 µM (active) | 0.0923 µM (active) | 0.317 µM (active) | 1.54 µM (inactive) | 0.124 µM (active) | 0.151 µM (active) | 0.255 µM (active) | 0.262 µM (active) | 0.214 µM (active) | 0.237 µM (active) | 0.492 µM (active) | 0.468 µM (active) | 0.514 µM (active) | 0.31 µM (active) | 0.288 µM (active) | 0.188 µM (active) | 1 µM (active) | 2 µM (inactive)
12 | COc1ccc(S(=O)(=O)N2C(=O)CCC2C(=O)NN)cc1 (stereo not given) | > 100 µM (inactive) | > 100 µM (inactive) | > 100 µM (inactive) | > 100 µM (inactive) | > 100 µM (inactive) | > 100 µM (inactive) | > 100 µM (inactive) | > 100 µM (inactive) | > 100 µM (inactive) | > 100 µM (inactive) | > 100 µM (inactive) | > 100 µM (inactive) | > 100 µM (inactive) | > 100 µM (inactive) | 25.5 µM (inactive) | > 100 µM (inactive) | > 100 µM (inactive) | > 100 µM (inactive) | > 100 µM (inactive) | > 100 µM (inactive)
